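Results reflect a 48-hour exposure of cells in 96-well plates to compound at five concentrations. Abbreviation: GI50, concentration required for 50% inhibition of growth.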 Active and inactive are the calls of the source. Cut-off read from the data, not from the text of the source: active = GI50 up to about 1.1 µM and inactive = higher.
Legend:
Assay in all cases: inhibition of tumour cell growth, NCI panel, 48 h
UO-31 = test system: UO-31
DMS-273 = test system: DMS-273
A549 = test system: A549
OVCAR-5 = test system: OVCAR-5
HCT-15 = test system: HCT-15
NCI-H460 = test system: NCI-H460
LOX IMVI = test system: LOX IMVI
SNB-75 = test system: SNB-75
OVCAR-4 = test system: OVCAR-4
NCI-H23 = test system: NCI-H23
COLO 205 = test system: COLO 205
A498 = test system: A498
SK-MEL-28 = test system: SK-MEL-28
LXFL 529 = test system: LXFL 529
SN12C = test system: SN12C
SNB-19 = test system: SNB-19
SK-MEL-5 = test system: SK-MEL-5
HCT-116 = test system: HCT-116
HT-29 = test system: HT-29
EKVX = test system: EKVX
IGROV-1 = test system: IGROV-1
HOP-92 = test system: HOP-92
M14 = test system: M14
SW-620 = test system: SW-620
UACC-257 = test system: UACC-257
DMS-114 = test system: DMS-114
HCC 2998 = test system: HCC 2998
CAKI-1 = test system: CAKI-1
SF-539 = test system: SF-539
OVCAR-8 = test system: OVCAR-8
SF-268 = test system: SF-268
TK-10 = test system: TK-10
UACC-62 = test system: UACC-62
SF-295 = test system: SF-295
SK-OV-3 = test system: SK-OV-3
RXF 393 = test system: RXF 393
DLD-1 = test system: DLD-1
OVCAR-3 = test system: OVCAR-3
ACHN = test system: ACHN
NCI-H226 = test system: NCI-H226
U-251 = test system: U-251
K562 = test system: K562
CCRF-CEM = test system: CCRF-CEM
RPMI-8226 = test system: RPMI-8226
SR = test system: SR
KM-20L2 = test system: KM-20L2
MOLT-4 = test system: MOLT-4
HOP-62 = test system: HOP-62
M19-MEL = test system: M19-MEL
SK-MEL-2 = test system: SK-MEL-2
KM12 = test system: KM12
NCI-H522 = test system: NCI-H522
Malme-3M = test system: Malme-3M
HL-60 = test system: HL-60
786-0 = test system: 786-0

## O=C1NC(=S)S/C1=C/c1ccco1
UO-31
  GI50: > 100 µM (inactive)
DMS-273
  GI50: > 100 µM (inactive)
A549
  GI50: > 100 µM (inactive)
OVCAR-5
  GI50: > 100 µM (inactive)
HCT-15
  GI50: > 100 µM
NCI-H460
  GI50: > 100 µM (inactive)
LOX IMVI
  GI50: > 100 µM (inactive)
SNB-75
  GI50: > 100 µM (inactive)
OVCAR-4
  GI50: > 100 µM (inactive)
NCI-H23
  GI50: > 100 µM (inactive)
COLO 205
  GI50: > 100 µM (inactive)
A498
  GI50: 11.1 µM (inactive)
SK-MEL-28
  GI50: > 100 µM (inactive)
LXFL 529
  GI50: > 100 µM (inactive)
SN12C
  GI50: > 100 µM (inactive)
SNB-19
  GI50: > 100 µM (inactive)
SK-MEL-5
  GI50: > 100 µM (inactive)
HCT-116
  GI50: > 100 µM (inactive)
HT-29
  GI50: > 100 µM (inactive)
EKVX
  GI50: > 100 µM (inactive)
IGROV-1
  GI50: > 100 µM (inactive)
HOP-92
  GI50: 49.4 µM (inactive)
M14
  GI50: > 100 µM (inactive)
SW-620
  GI50: > 100 µM (inactive)
UACC-257
  GI50: 46.3 µM (inactive)
DMS-114
  GI50: > 100 µM (inactive)
HCC 2998
  GI50: > 100 µM (inactive)
CAKI-1
  GI50: > 100 µM (inactive)
SF-539
  GI50: > 100 µM (inactive)
OVCAR-8
  GI50: > 100 µM (inactive)
SF-268
  GI50: > 100 µM (inactive)
TK-10
  GI50: > 100 µM (inactive)
UACC-62
  GI50: > 100 µM (inactive)
SF-295
  GI50: > 100 µM (inactive)
SK-OV-3
  GI50: > 100 µM (inactive)
RXF 393
  GI50: > 100 µM (inactive)
DLD-1
  GI50: > 100 µM (inactive)
OVCAR-3
  GI50: 50.1 µM (inactive)
ACHN
  GI50: > 100 µM (inactive)
NCI-H226
  GI50: > 100 µM (inactive)

## CC(=O)[O-].[O-]c1c(Cl)cc(Cl)cc1/C=N/Nc1ccccn1.[Zn+2]
UO-31
  GI50: 0.31 µM (active)
U-251
  GI50: 3.12 µM (inactive)
A549
  GI50: 3.65 µM (inactive)
OVCAR-5
  GI50: 2 µM (inactive)
HCT-15
  GI50: 0.403 µM
NCI-H460
  GI50: 1.38 µM (inactive)
K562
  GI50: 0.372 µM (active)
CCRF-CEM
  GI50: 0.244 µM (active)
RPMI-8226
  GI50: 0.325 µM (active)
LOX IMVI
  GI50: 0.798 µM (active)
SNB-75
  GI50: 4.99 µM (inactive)
SR
  GI50: 0.16 µM (active)
KM-20L2
  GI50: 3.7 µM (inactive)
NCI-H23
  GI50: 0.32 µM (active)
COLO 205
  GI50: 15.2 µM (inactive)
MOLT-4
  GI50: 0.183 µM (active)
HOP-62
  GI50: 1.81 µM (inactive)
A498
  GI50: > 100 µM (inactive)
SK-MEL-28
  GI50: 1.57 µM (inactive)
M19-MEL
  GI50: 0.745 µM (active)
SK-MEL-2
  GI50: 0.0601 µM (active)
LXFL 529
  GI50: 0.436 µM (active)
SN12C
  GI50: 5.82 µM (inactive)
SNB-19
  GI50: 3.86 µM (inactive)
SK-MEL-5
  GI50: 0.593 µM (active)
HCT-116
  GI50: 0.338 µM (active)
HT-29
  GI50: 6.82 µM (inactive)
EKVX
  GI50: 2.18 µM (inactive)
IGROV-1
  GI50: 1.96 µM (inactive)
HOP-92
  GI50: 0.316 µM (active)
M14
  GI50: 0.387 µM (active)
KM12
  GI50: 6.3 µM (inactive)
SW-620
  GI50: 1.74 µM (inactive)
UACC-257
  GI50: 0.418 µM (active)
DMS-114
  GI50: 0.239 µM (active)
HCC 2998
  GI50: 9.86 µM (inactive)
SF-539
  GI50: 1.26 µM (inactive)
NCI-H522
  GI50: 0.41 µM (active)
OVCAR-8
  GI50: 0.237 µM (active)
Malme-3M
  GI50: 0.76 µM (active)
SF-268
  GI50: 0.94 µM (active)
UACC-62
  GI50: 0.435 µM (active)
SF-295
  GI50: 1.47 µM (inactive)
HL-60
  GI50: 0.234 µM (active)
786-0
  GI50: 1.59 µM (inactive)
RXF 393
  GI50: 0.923 µM (active)
DLD-1
  GI50: 0.415 µM (active)
OVCAR-3
  GI50: 0.268 µM (active)
ACHN
  GI50: 0.535 µM (active)
NCI-H226
  GI50: > 100 µM (inactive)

From ChEMBL document CHEMBL1201862, “PubChem BioAssay data set” (2004)
